13 molecules from US11634447B2 (priority 2012, dated 2023) can be followed below.

Assay [1] addresses T1, FimH-CRD (Escherichia coli, UniProt P08191).
T1 construct: The first 177 amino acids of the FimH protein are expressed as a fusion protein; thrombin tag (printed as 'fusion protein with thrombin') (cleaved yes); made in house; host or cells: bacteria (pET21b plasmid)
In words: Competitive binding assay by fluorescence polarization, assay 2 (compounds prepared by a robotics system, plates frozen and thawed). On the set-up: species or system E. coli. As to the method: The first 177 amino acids of the FimH protein are expressed as a fusion protein with thrombin in a pET21b plasmid in bacteria. This FimH protein sequence contains the carbohydrate recognition domain (CRD) and shall be termed FimH-CRD. Following bacterial expression of the protein, the FimH-CRD protein is purified to homogeneity and the thrombin tag removed by protease cleavage. A competitive binding assay by fluorescence polarization is performed using 5 nM of the Alexa 647 mannoside probe and 60 nM of the FimH-CRD. The samples are assayed in a low volume 384 well microtiter plate in a final volume of 20 μl. The final assay buffer conditions are the following, 50 mM Tris-Cl, ph 7.0, 100 mM NaCl, 1 mM EDTA, 5 mM β-mercaptoethanol, 0.05% BSA and 2.5% DMSO. Two assays are performed for FimH, termed assay 1 or assay 2. The assay conditions are the same for both assays except the following: assay 1 has compounds prepared by manual dilution in a serial dilution factor with 12-point dose response while assay 2 has compounds prepared by a robotics system also through a serial dilution factor (12 point dose response) and initially prepared in duplicate in 384 well-Corning polypropylene round bottom plates. The assay 2 plates have compound which is then frozen and must be thawed prior to use. Initially the Alexa 647 probe and the FimH-CRD are added to the assay buffer and then 0.5 μl of test compound (assay 1 or 2) between 0.4 nM to 75 μM final concentration are added (12 point titration with 3-fold serial dilution). Control wells for the Alexa 647 probe are prepared with the same conditions except for the addition of the FimH-CRD protein. Plates are then incubated for 5 hrs at room temperature in the dark and under humid conditions to prevent drying. Plates are read using the SpectraMax Paradigm multi-mode plate reader and the appropriate fluorescent polarization detection cartridge (Alexa-647).
Alexa 647 mannoside probe is prepared using the similar procedure reported for FAM mannoside (Han, Z. et. al., 2010, J. Med. Chem., 53, 4779) and is described in the scheme below.
To a blue colored stirred solution of (2S,3S,4S,5S,6R)-2-(4-aminobutoxy)-6-(hydroxymethyl)tetrahydropyran-3,4,5-triol (2.21 mg, 0.009 mmol) and the (2E)-2-[(2E,4E)-5-[3,3-dimethyl-5-sulfonato-1-(3-sulfonatopropyl)indol-1-ium-2-yl]penta-2,4-dienylidene]-3-[6-(2,5-dioxopyrrolidin-1-yl)oxy-6-oxo-hexyl]-3-methyl-1-(3-sulfonatopropyl)indoline-5-sulfonate (Potassium Ion (3)) (4.9 mg, 0.0044 mmol) in DMF (44 μL) is added Et3N (5.4 mg, 7.0 μL, 0.053 mmol) at RT. The solution is stirred at room temperature over night, concentrated, dissolved in water and purified on 12 g C-18 silica gel cartridge on Isolera system using acetonitrile in water (0 to 40%, 10 CV) and followed by lyophilization to afford Alexa 647 mannoside probe (3.3 mg, 34%) as deep blue solid.
The Kd values of the compounds are determined from dose response curves using twelve concentrations per compound in duplicate. Curves are fitted to data points using Fluorescence Polarization competitive displacement analysis, and Kds are interpolated from the resulting curves using GraphPad Prism software, version […] (GraphPad software Inc., San Diego, Calif., USA).
For orientation: In fluorescence polarisation assays a small probe gives low polarisation when free and higher when bound to something large.

For assay [2], the target named is T1, FimH-CRD. In words: Competitive binding assay by fluorescence polarization, assay 1 (compounds prepared by manual dilution). Further details: species or system E. coli. In a few lines: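 FimH-CRD (residues 1-177, tag removed) at 60 nM competed against 5 nM Alexa 647 mannoside probe in 50 mM Tris-Cl pH 7.0, 100 mM NaCl, 1 mM EDTA, 5 mM β-mercaptoethanol, 0.05% BSA, 2.5% DMSO; 5 h, room temperature, dark. Compounds 0.4 nM-75 μM final, 12-point 3-fold, duplicate; Kd from fluorescence polarization displacement curves. Assay 1: manual dilution; assay 2: robotic dilution, plates frozen/thawed.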

The subject of assay [3] is bacterial strain LF82 binding to the glycoprotein BSA-(Mannose)3. Description: Bacterial Binding Assay (BBA). The assay is classed as cell-based, Escherichia coli. The following applies: read-out: Bacterial Binding Assay IC50, LF82/Luciferase strain binding to BSA-(Man)3 coated plates, luminescence. In a few lines: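 Inhibition of LF82/luciferase E. coli adhesion is read as luminescence after washing off unbound cells. Compound and bacteria (10^7 per well) are co-incubated 40-75 min at room temperature on wells coated with 0.5-2 μg/mL BSA-(Man)3, with BSA-only wells as background; IC50 values derived.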

[4] abbreviates: Assay 2 Kd, 5 nM Alexa 647 mannoside probe, 60 nM FimH-CRD, replicate values in one cell.
Setting [5] is: Assay 1 Kd, 5 nM Alexa 647 mannoside probe, 60 nM FimH-CRD, replicate values in one cell.
[6] abbreviates: read-out: Assay 1 Kd, 5 nM Alexa 647 mannoside probe, 60 nM FimH-CRD, replicate values in one cell.
The mark [7] stands for this setting: read-out: Assay 2 Kd, 5 nM Alexa 647 mannoside probe, 60 nM FimH-CRD, replicate values in one cell.

“And” between values parts separate entries of the source, which are not always exact repeats. Equal values may be shown once. Where only a bound is given, the exact number is not on record here.

T1 sequence (P08191 22-177): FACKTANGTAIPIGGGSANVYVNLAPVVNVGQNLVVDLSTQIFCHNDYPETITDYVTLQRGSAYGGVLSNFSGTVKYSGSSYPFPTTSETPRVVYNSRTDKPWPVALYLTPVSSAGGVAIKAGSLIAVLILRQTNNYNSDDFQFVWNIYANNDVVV

`OC[C@H]1O[C@H](C/C=C/c2cccc(C#C[C@H]3O[C@H](CO)[C@@H](O)[C@H](O)[C@@H]3O)c2)[C@@H](O)[C@@H](O)[C@@H]1O` [Compound 40, ((2R,3S,4R,5S,6R)-2-(Hydroxymethyl)-6-[(E)-3-[3-[2-[(2R,3S,4R,5S,6R)-3,4,5-trihydroxy-6-(hydroxymethyl)tetrahydropyran-2-yl]ethynyl]phenyl]allyl]tetrahydropyran-3,4,5-triol)]: the Kd at FimH-CRD [1] (setting [4]) is 8 nM and 10 nM; at FimH-CRD [2] (setting [5]) it was < 5 nM and 18 nM. Besides, in assay [3], the IC50 turned out to be 43 nM.
As to `O=C(NCCCCCCCCNC(=O)c1cccc([C@H]2O[C@H](CO)[C@@H](O)[C@H](O)[C@@H]2O)c1)c1cccc([C@H]2O[C@H](CO)[C@@H](O)[C@H](O)[C@@H]2O)c1` [Compound 14, (R,R,S,R,S)-N,N′-(Octane-1,8-diyl)bis(3-((2R,3S,4R,5S,6R)-3,4,5-trihydroxy-6-(hydroxymethyl)tetrahydro-2H-pyran-2-yl)benzamide)], the dissociation constant Kd on FimH-CRD [1] (setting [4]) was 43 nM and 6 nM and 14 nM; at FimH-CRD [2] (setting [5]) it was 11 nM and 13 nM. In assay [3], the IC50 was 4100 nM.
On to `OC[C@H]1O[C@H](CCCc2ccc(CCC[C@H]3O[C@H](CO)[C@@H](O)[C@H](O)[C@@H]3O)cc2)[C@@H](O)[C@@H](O)[C@@H]1O` [Compound 38, (2R,3S,4R,5S,6R)-2-(hydroxymethyl)-6-[3-[4-[3-[(2R,3S,4R,5S,6R)-3,4,5-trihydroxy-6-(hydroxymethyl)tetrahydropyran-2-yl]propyl]phenyl]propyl]tetrahydropyran-3,4,5-triol], for which the Kd at FimH-CRD [1] (setting [4]) was < 5 nM (2×) and 21 nM; on FimH-CRD [2] (setting [5]) it was under 5 nM; at FimH-CRD [2] (setting [6]) it was under 5 nM. Also, the IC50 in assay [3] was 410 nM.
Regarding `O=C(NCCCCCNC(=O)c1cccc([C@H]2O[C@H](CO)[C@@H](O)[C@H](O)[C@@H]2O)c1)c1cccc([C@H]2O[C@H](CO)[C@@H](O)[C@H](O)[C@@H]2O)c1` [Compound 11, (R,R,S,R,S)-N,N′-(Pentane-1,5-diyl)bis(3-((2R,3S,4R,5S,6R)-3,4,5-trihydroxy-6-(hydroxymethyl)tetrahydro-2H-pyran-2-yl)benzamide)], the dissociation constant Kd at FimH-CRD [1] (setting [4]) was 16 nM; at FimH-CRD [2] (setting [5]), < 5 nM and 11 nM.
For the molecule `O=C(NCCCNC(=O)c1cccc([C@H]2O[C@H](CO)[C@@H](O)[C@H](O)[C@@H]2O)c1)c1cccc([C@H]2O[C@H](CO)[C@@H](O)[C@H](O)[C@@H]2O)c1` [Compound 9, (R,R,S,R,S)-N,N′-(Propane-1,3-diyl)bis(3-((2R,3S,4R,5S,6R)-3,4,5-trihydroxy-6-(hydroxymethyl)tetrahydro-2H-pyran-2-yl)benzamide)], the dissociation constant Kd is 24 nM on FimH-CRD [1] (setting [4]); 7 nM and 12 nM on FimH-CRD [2] (setting [5]).
With `OC[C@H]1O[C@H](c2ccc(-c3cccc([C@H]4O[C@H](CO)[C@@H](O)[C@H](O)[C@@H]4O)c3)cc2)[C@@H](O)[C@@H](O)[C@@H]1O` [Compound 5, (2R,2,3S,3,4R,4,5S,5,6R,6)-6,6([1,1Biphenyl]-3,4diyl)bis(2-(hydroxymethyl)tetrahydro-2H-pyran-3,4,5-triol)], the Kd was 49 nM and < 5 nM (2×) at FimH-CRD [1] (setting [4]); under 5 nM at FimH-CRD [2] (setting [5]); under 5 nM at FimH-CRD [2] (setting [6]). In assay [3], the IC50 worked out at 580 nM.
For `OC[C@H]1O[C@H](c2ccc(-c3ccc([C@H]4O[C@H](CO)[C@@H](O)[C@H](O)[C@@H]4O)cc3)cc2)[C@@H](O)[C@@H](O)[C@@H]1O` [Compound 6, (2R,2 ,3S,3,4R,4,5S,5,6R,6)-6,6([1,1Biphenyl]-4,4diyl)bis(2-(hydroxymethyl)tetrahydro-2H-pyran-3,4,5-triol)], the dissociation constant (Kd) on FimH-CRD [1] (setting [4]) is < 5 nM and 23 nM; on FimH-CRD [2] (setting [5]) it was under 5 nM; at FimH-CRD [2] (setting [6]), under 5 nM. Further, in assay [3], the IC50 was found to be 95 nM.
On to `OC[C@H]1O[C@H](c2ccc([C@H]3O[C@H](CO)[C@@H](O)[C@H](O)[C@@H]3O)cc2)[C@@H](O)[C@@H](O)[C@@H]1O` [Compound 1, (2R,3S,4R,5S,6R)-2-(Hydroxymethyl)-6-[4-[(2R,3S,4R,5S,6R)-3,4,5-trihydroxy-6 (hydroxymethyl)tetrahydropyran-2-yl]phenyl]tetrahydropyran-3,4,5-triol], for which the equilibrium dissociation constant (Kd) was 13 nM and 8 nM at FimH-CRD [1] (setting [4]); < 5 nM (2×) and 8 nM on FimH-CRD [2] (setting [5]). In assay [3], the IC50 came out at 5270 nM.
With `OC[C@H]1O[C@H](c2cccc(OCCCOc3cccc([C@H]4O[C@H](CO)[C@@H](O)[C@H](O)[C@@H]4O)c3)c2)[C@@H](O)[C@@H](O)[C@@H]1O` [Compound 44, ((2R,3S,4R,5S,6R)-2-(Hydroxymethyl)-6-[3-[3-[3-[(2R,3S,4R,5S,6R)-3,4,5-trihydroxy-6-(hydroxymethyl)tetrahydropyran-2-yl]phenoxy]propoxy]phenyl]tetrahydropyran-3,4,5-triol)], the values for the Kd on FimH-CRD [1] (setting [4]), at FimH-CRD [2] (setting [5]) and at FimH-CRD [2] (setting [6]) were 6 nM, under 5 nM and under 5 nM, respectively. Moreover, in assay [3], the IC50 worked out at 480 nM.
In the case of `OC[C@H]1O[C@H](c2cn([C@H]3O[C@H](CO)[C@@H](O)[C@H](O)[C@@H]3O)nn2)[C@@H](O)[C@@H](O)[C@@H]1O` [Compound 42, ((2R,3S,4R,5S,6R)-2-(Hydroxymethyl)-6-[1-[(2S,3S,4S,5S,6R)-3,4,5-trihydroxy-6-(hydroxymethyl)tetrahydropyran-2-yl]triazol-4-yl]tetrahydropyran-3,4,5-triol)], the Kd is 140 nM and 145 nM on FimH-CRD [1] (setting [4]); 114 nM and 377 nM at FimH-CRD [2] (setting [5]).
Turning to `OC[C@H]1O[C@H](C#Cc2ccc3ccc(C#C[C@H]4O[C@H](CO)[C@@H](O)[C@H](O)[C@@H]4O)cc3c2)[C@@H](O)[C@@H](O)[C@@H]1O` [Compound 58, (2R,3S,4R,5S,6R)-2-(Hydroxymethyl)-6-[2-[7-[2-[(2R,3S,4R,5S,6R)-3,4,5-trihydroxy-6-(hydroxymethyl)tetrahydropyran-2-yl]ethynyl]-2-naphthyl]ethynyl]tetrahydropyran-3,4,5-triol], the Kd at FimH-CRD [1] (setting [4]) and at FimH-CRD [1] (setting [7]) was under 5 nM in each case. Further, in assay [3], the IC50 came out at 17 nM.
On to `OC[C@H]1O[C@H](C#Cc2ccc(C#C[C@H]3O[C@H](CO)[C@@H](O)[C@H](O)[C@@H]3O)cc2)[C@@H](O)[C@@H](O)[C@@H]1O` [Compound 53, (2R,3S,4R,5S,6R)-2-(Hydroxymethyl)-6-[2-[4-[2-[(2R,3S,4R,5S,6R)-3,4,5-trihydroxy-6-(hydroxymethyl)tetrahydropyran-2-yl]ethynyl]phenyl]ethynyl]tetrahydropyran-3,4,5-triol], for which the dissociation constant Kd on FimH-CRD [1] (setting [4]) and on FimH-CRD [1] (setting [7]) was under 5 nM in each case. Besides, the IC50 in assay [3] worked out at 55 nM.
For the molecule `OC[C@H]1O[C@H](C#CC#C[C@H]2O[C@H](CO)[C@@H](O)[C@H](O)[C@@H]2O)[C@@H](O)[C@@H](O)[C@@H]1O` [Compound 54, (2R,3S,4R,5S,6R)-2-(hydroxymethyl)-6-[4-[(2R,3S,4R,5S,6R)-3,4,5-trihydroxy-6-(hydroxymethyl)tetrahydropyran-2-yl]buta-1,3-diynyl]tetrahydropyran-3,4,5-triol], the Kd at FimH-CRD [1] (setting [4]) was 16 nM and 30 nM. For the same molecule, the IC50 in assay [3] is 1150 nM.

Broadly, the Kd is the concentration at which binding is half-saturated.
